One test concerns the target T1, Adrenergic α2A (Homo sapiens, UniProt P08913).
T1 construct: purchased Eurofins
T1 sequence (P08913 1-465): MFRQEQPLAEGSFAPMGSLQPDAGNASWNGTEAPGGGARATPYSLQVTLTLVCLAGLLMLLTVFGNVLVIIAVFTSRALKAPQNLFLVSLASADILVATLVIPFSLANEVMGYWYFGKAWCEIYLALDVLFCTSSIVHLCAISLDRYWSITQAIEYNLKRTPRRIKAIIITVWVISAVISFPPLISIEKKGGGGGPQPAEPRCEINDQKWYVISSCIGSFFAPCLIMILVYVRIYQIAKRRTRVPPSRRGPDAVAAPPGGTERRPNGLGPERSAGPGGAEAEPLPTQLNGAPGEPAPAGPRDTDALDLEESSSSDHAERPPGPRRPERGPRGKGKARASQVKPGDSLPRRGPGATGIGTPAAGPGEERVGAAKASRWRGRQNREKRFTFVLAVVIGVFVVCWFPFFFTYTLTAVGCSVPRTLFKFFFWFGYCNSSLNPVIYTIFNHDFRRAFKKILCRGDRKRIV
Kind of test: Eurofins Diversity Panel. In kind it is binding. The following applies: hum.

For a further test, the target named is Endothelin ETB (Homo sapiens, UniProt P24530). Kind of test: Eurofins Diversity Panel. Type of test: binding. The following applies: hum, Conc. 10 μM.
The next test deals with Phorbol Ester. Nature of the test: Eurofins Diversity Panel. In kind it is binding. The following applies: mouse, Conc. 10 μM.
In the next test the test system is Purinergic P2X. Nature of the test: Eurofins Diversity Panel. Type of test: binding. The following applies: rabbit, Conc. 10 μM.
Test [1] has as its target Transporter, Norepinephrine (NET) (Homo sapiens, UniProt P23975). Kind of test: Eurofins Diversity Panel. Type of test: binding. The following applies: hum, Conc. 10 μM.
Test [2] concerns the target TYK2(JH2domain-pseudokinase) (Homo sapiens, UniProt P29597). Kind of test: KINOMEscan: TYK2(JH2domain-pseudokinase). In kind it is binding. Particulars: 100 nM, read-out: Percent Control.
Another test deals with BMPR1A (Homo sapiens, UniProt P36894). Nature of the test: KINOMEscan: BMPR1A. In kind it is binding. The following applies: 1000 nM, read-out: Percent Control.
Another test deals with CDC2L2 (Homo sapiens, UniProt Q9UQ88). Nature of the test: KINOMEscan: CDC2L2. Type of test: binding. The following applies: 1000 nM, read-out: Percent Control.
The target of a further test is EPHB2 (Homo sapiens, UniProt P29323). Nature of the test: KINOMEscan: EPHB2. Particulars: 1000 nM, read-out: Percent Control. Type of test: binding.
EPHB2, sequence (P29323 19-1055): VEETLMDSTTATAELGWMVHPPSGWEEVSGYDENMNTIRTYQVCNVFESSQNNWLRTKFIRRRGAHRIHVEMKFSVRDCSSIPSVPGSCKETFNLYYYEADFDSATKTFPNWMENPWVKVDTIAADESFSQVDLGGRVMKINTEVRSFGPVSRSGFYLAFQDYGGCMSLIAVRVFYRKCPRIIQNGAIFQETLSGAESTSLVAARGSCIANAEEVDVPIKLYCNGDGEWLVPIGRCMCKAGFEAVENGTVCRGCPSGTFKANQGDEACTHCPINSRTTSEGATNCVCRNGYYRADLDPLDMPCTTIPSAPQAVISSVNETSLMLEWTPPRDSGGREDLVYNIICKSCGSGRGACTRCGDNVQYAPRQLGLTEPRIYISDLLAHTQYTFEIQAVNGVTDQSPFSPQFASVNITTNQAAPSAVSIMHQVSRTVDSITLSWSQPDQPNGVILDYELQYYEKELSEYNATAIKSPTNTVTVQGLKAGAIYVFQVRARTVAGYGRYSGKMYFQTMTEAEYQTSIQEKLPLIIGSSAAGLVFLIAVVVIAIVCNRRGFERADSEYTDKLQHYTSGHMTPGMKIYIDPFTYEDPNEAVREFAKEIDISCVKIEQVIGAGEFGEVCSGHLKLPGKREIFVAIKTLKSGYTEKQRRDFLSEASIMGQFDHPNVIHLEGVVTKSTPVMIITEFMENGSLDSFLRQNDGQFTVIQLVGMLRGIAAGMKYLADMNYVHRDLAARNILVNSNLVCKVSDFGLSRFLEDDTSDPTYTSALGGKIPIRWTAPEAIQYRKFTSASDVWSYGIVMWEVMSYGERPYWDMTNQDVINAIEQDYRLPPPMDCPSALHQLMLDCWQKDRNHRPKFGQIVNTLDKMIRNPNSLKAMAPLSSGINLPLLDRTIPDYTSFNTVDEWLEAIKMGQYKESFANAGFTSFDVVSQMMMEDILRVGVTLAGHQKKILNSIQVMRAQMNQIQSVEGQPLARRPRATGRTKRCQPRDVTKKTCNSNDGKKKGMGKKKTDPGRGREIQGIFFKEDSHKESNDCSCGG
Another test deals with ERK3 (Homo sapiens, UniProt Q16659). Nature of the test: KINOMEscan: ERK3. The following applies: 1000 nM, read-out: Percent Control. Type of test: binding.
ERK3, sequence (Q16659 whole entry): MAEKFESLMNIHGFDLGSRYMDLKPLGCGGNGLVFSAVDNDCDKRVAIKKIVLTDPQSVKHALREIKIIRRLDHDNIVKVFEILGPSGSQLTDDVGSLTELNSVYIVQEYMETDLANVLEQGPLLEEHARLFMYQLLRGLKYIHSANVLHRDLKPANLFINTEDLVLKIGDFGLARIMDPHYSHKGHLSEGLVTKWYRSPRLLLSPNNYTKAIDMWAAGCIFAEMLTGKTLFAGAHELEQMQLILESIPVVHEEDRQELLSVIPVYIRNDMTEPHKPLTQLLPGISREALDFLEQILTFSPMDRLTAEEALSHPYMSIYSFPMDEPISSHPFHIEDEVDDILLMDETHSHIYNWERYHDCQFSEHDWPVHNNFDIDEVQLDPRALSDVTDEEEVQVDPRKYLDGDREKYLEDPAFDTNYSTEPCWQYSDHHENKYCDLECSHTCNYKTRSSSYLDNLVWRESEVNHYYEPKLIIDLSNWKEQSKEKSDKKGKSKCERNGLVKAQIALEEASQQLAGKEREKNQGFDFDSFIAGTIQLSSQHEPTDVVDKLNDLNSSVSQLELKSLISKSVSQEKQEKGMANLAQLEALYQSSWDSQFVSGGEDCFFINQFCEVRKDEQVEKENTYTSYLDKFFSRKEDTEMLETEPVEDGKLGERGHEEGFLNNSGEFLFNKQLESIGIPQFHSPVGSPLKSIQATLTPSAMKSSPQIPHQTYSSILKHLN
A further test deals with FLT3 (Homo sapiens, UniProt P36888). Nature of the test: KINOMEscan: FLT3. Particulars: 1000 nM, read-out: Percent Control. In kind it is binding.
The target in a further test is GRK3 (Homo sapiens, UniProt P35626). Kind of test: KINOMEscan: GRK3. In kind it is binding. The following applies: 1000 nM, read-out: Percent Control.
Another test deals with LKB1 (Homo sapiens, UniProt Q15831). Kind of test: KINOMEscan: LKB1. The following applies: 1000 nM, read-out: Percent Control. Type of test: binding.
LKB1, sequence (Q15831 whole entry): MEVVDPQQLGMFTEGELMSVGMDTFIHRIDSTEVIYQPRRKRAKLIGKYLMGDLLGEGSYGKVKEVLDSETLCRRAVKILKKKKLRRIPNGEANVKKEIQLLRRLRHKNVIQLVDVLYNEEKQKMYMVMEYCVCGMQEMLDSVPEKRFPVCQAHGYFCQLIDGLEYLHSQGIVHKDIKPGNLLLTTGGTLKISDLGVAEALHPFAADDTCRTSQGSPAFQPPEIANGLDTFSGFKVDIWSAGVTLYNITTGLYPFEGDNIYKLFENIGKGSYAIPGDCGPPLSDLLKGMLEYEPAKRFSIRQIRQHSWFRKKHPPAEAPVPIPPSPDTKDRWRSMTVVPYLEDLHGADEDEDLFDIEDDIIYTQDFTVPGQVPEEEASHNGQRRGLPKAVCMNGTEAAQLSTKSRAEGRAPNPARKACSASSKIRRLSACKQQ
The next test has as its target MINK (Homo sapiens, UniProt Q8N4C8). Kind of test: KINOMEscan: MINK. Type of test: binding. The following applies: 1000 nM, read-out: Percent Control.
The target of test [3] is EGFR(L747-E749del, A750P) (Homo sapiens, UniProt P00533, A750P/DEL747-749). Nature of the test: biochemical. Details: DiscoverX KINOMEscan kinase panel, per cent of control (100 = no effect), single concentrations. The following applies: per cent of control, KINOMEscan; read-out: Percent Control. As for the experimental part:
(§1) The structure and synthesis of VIP152 were recently described by Lücking et al.. (Fig. 1A); however, the selectivity of the molecule in cellular systems has yet to be explored. […] We also performed this experiment at 1000 nM, where CDK9 was inhibited at 99%. […] We found a strong concordance between our data and those of Lücking when comparing the most inhibited kinases. Potential off-target effects of VIP152 were next tested in vitro at a concentration of 10 µM for off-target activity against a broad range of receptors, transporters, ion channels, and enzymes (n = 138) using the Eurofins Diversity Panel. […] A Chemical structure of VIP152.

The target of test [4] is EGFR(L747-S752del, P753S) (Homo sapiens, UniProt P00533, DEL747-752/P753S). Nature of the test: biochemical. Details: DiscoverX KINOMEscan kinase panel, per cent of control (100 = no effect), single concentrations. The following applies: per cent of control, KINOMEscan; read-out: Percent Control. As for the experimental part: as §1
EGFR(L747-S752del, P753S), sequence (P00533 with tags, fused parts or gaps DEL747-752/P753S): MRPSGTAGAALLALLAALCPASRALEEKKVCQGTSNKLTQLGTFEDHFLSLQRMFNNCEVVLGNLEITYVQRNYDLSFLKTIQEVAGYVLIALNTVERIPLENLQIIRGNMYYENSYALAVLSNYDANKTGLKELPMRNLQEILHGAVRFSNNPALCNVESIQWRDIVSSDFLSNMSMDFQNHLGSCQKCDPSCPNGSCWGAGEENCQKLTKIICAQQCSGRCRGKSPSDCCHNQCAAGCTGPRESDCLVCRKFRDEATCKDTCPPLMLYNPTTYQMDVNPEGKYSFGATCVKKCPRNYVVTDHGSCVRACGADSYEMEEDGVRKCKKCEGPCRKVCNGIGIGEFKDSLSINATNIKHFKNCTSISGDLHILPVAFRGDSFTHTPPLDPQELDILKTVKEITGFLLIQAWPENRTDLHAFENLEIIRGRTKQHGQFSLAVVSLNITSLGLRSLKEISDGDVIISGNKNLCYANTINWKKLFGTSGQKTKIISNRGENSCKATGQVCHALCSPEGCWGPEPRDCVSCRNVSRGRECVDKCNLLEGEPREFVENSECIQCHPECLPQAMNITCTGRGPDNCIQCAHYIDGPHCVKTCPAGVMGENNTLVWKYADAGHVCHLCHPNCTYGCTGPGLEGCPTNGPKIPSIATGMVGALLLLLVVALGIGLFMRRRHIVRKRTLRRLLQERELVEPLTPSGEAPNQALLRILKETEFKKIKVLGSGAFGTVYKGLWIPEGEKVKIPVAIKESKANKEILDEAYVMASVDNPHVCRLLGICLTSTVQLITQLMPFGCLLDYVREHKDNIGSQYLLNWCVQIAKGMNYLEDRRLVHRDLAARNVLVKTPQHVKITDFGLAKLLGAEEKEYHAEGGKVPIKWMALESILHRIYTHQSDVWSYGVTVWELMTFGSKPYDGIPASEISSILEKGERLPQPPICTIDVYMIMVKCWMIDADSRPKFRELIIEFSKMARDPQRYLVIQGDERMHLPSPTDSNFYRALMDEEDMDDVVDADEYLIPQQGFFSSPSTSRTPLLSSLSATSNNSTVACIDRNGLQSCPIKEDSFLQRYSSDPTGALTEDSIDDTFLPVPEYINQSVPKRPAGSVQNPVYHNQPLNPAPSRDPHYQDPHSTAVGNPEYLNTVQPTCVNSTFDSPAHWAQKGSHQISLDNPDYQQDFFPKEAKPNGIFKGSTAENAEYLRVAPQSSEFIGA
The next test deals with EGFR(L747-T751del,Sins) (Homo sapiens, UniProt P00533, DEL747-750/T751S). Kind of test: biochemical. Details: DiscoverX KINOMEscan kinase panel, per cent of control (100 = no effect), single concentrations. Particulars: per cent of control, KINOMEscan; read-out: Percent Control. As for the experimental part:
as §1

Another test addresses FLT3(ITD) (Homo sapiens, UniProt P36888, ITD). Nature of the test: biochemical. The following applies: per cent of control, KINOMEscan; read-out: Percent Control. Details: DiscoverX KINOMEscan kinase panel, per cent of control (100 = no effect), single concentrations. As for the experimental part:
as §1

For the next test, the target named is FLT3(ITD,D835V) (Homo sapiens, UniProt P36888, D835V/ITD). Nature of the test: biochemical. Details: DiscoverX KINOMEscan kinase panel, per cent of control (100 = no effect), single concentrations. The following applies: per cent of control, KINOMEscan; read-out: Percent Control. As for the experimental part:
as §1

The target of the next test is FLT3(ITD,F691L) (Homo sapiens, UniProt P36888, F691L/ITD). Nature of the test: biochemical. Particulars: per cent of control, KINOMEscan; read-out: Percent Control. Details: DiscoverX KINOMEscan kinase panel, per cent of control (100 = no effect), single concentrations. As for the experimental part: as §1

Each structure is given as a SMILES string.

TYK2(JH2domain-pseudokinase), sequence (P29597 556-888 limits assumed): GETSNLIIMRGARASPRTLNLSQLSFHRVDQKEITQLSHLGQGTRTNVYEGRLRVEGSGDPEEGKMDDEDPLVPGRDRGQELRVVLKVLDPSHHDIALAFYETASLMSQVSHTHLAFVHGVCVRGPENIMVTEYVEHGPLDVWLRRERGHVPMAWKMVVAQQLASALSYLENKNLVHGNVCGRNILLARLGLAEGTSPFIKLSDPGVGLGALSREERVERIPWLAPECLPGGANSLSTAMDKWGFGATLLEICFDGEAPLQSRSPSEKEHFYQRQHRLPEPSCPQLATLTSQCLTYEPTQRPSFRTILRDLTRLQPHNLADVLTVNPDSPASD
EGFR(L747-T751del,Sins), sequence (P00533 with tags, fused parts or gaps DEL747-750/T751S): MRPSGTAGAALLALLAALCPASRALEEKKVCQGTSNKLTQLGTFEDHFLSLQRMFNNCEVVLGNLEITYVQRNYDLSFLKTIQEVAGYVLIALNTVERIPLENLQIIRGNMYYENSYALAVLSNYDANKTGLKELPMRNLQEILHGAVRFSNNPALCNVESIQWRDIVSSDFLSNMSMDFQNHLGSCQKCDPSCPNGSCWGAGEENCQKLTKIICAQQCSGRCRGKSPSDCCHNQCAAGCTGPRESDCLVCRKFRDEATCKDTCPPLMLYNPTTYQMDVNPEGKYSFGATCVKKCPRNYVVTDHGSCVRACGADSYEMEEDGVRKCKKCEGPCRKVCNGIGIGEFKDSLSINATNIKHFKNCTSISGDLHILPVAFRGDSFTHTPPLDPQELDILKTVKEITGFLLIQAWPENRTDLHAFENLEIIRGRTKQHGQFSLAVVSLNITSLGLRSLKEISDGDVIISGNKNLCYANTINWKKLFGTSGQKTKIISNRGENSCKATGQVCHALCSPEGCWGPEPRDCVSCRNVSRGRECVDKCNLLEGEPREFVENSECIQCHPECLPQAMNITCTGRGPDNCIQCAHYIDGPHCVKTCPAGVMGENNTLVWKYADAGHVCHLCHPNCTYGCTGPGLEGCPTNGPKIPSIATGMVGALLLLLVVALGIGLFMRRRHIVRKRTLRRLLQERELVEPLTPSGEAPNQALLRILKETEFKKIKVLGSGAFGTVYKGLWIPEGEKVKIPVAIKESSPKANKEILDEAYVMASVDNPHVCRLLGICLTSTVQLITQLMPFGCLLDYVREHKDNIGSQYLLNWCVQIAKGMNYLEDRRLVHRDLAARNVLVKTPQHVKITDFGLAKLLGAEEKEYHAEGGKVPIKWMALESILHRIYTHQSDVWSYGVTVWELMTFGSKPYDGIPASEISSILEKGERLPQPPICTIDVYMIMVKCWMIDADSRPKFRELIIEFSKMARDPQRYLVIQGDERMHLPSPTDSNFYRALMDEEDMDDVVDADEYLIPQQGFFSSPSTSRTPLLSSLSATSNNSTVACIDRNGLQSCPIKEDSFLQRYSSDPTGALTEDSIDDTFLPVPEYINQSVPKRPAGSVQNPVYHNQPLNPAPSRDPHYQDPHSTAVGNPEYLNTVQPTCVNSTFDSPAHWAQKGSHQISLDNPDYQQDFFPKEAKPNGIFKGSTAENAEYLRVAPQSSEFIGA

Regarding `COc1cc(F)ccc1-c1cc(Nc2cc(CS(C)(=N)=O)ccn2)ncc1F` (centres unmarked) [VIP152], the 50% inhibitory concentration (IC50) at Adrenergic α2A came to 64 nM. For the same molecule, affinity on Adrenergic α2A was put at a Ki of 32 nM. Besides, the nH on Adrenergic α2A was 0.94. In addition, the results for the inhibition at 10 µM (on Adrenergic α2A (Conc. 10 μM); at Endothelin ETB; in [1]) were 100%, 3% and 37%, respectively. Further, the entries for the “% Inh.” value with Phorbol Ester and in the test on Purinergic P2X were 8% and 11%, respectively. Besides, the remaining binding at 0.1 µM is 100% in [2]; 100% in [3]; 93% in test [4]; 100% at EGFR(L747-T751del,Sins); 100% at FLT3(ITD); 100% at FLT3(ITD,D835V). The remaining binding at 0.1 µM at FLT3(ITD,F691L) was found to be 99%. The remaining binding at 1 µM was 97% on BMPR1A; 78% at CDC2L2; 92% at EPHB2; 84% on ERK3; 38% on FLT3; 100% at GRK3. Besides, the remaining binding at 1 µM at LKB1 came out at 77%; at MINK, 29%.

A word on the IC50: it is the concentration at which inhibition is half-maximal. One may read the Ki as the equilibrium dissociation constant of an inhibitor or competing ligand from its target. Lower therefore signals tighter binding. The inhibition is the drop in the measured response relative to a control, in per cent. Lower therefore signals little suppression.

These data come from article PMC9898036, “VIP152 is a selective CDK9 inhibitor with pre-clinical in vitro and in vivo efficacy in chronic lymphocytic leukemia” (Leukemia, 2022).
